Literature values, collected in patent US20110206661A1, “TRIMETHOXYPHENYL INHIBITORS OF TYROSINE KINASE” (AUSPEX PHARMACEUTICALS, INC., priority 2010, published 2011).

Conditions: human plasma after oral administration of fostamatinib

drug-related compound observed in human plasma: only small amounts
Compound: COc1cc(Nc2ncc(F)c(Nc3ccc4c(n3)N(COP(=O)(O)O)C(=O)C(C)(C)O4)n2)cc(OC)c1OC [Fostamatinib, 6-[[5-fluoro-2-[(3,4,5-trimethoxyphenyl)amino]-4-pyrimidinyl]amino]-2,2-dimethyl-4-[(phosphonooxy)methyl]-2H-pyrido[3,2-b]-1,4-oxazin-3(4H)-one]
